According to ChEMBL document CHEMBL1145380, “Optimization of 1,3,4-benzotriazepine-based CCK(2) antagonists to obtain potent, orally active inhibitors of gastrin-mediated gastric acid secretion” (J Med Chem, 2007):

How the values were obtained:
[1] = biological target: T1, Gastrin/cholecystokinin type B receptor (Homo sapiens, UniProt P32239); experiment: Displacement of […] from human recombinant CCK2 receptor expressed in NIH3T3 cells; assay type: cell-based
T1 sequence (P32239 whole entry): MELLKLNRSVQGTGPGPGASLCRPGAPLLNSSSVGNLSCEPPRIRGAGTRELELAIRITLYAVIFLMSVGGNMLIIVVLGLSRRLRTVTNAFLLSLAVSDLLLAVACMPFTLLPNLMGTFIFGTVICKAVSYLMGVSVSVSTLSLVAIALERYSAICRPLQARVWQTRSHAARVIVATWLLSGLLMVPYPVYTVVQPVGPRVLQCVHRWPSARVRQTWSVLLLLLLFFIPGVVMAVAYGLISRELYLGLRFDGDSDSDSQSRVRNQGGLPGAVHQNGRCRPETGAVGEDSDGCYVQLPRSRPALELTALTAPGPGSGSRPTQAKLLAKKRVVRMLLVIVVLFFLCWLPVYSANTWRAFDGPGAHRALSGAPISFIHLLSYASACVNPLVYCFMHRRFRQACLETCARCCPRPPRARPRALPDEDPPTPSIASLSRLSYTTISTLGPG

[2] = biological target: T2, Cholecystokinin receptor type A (Homo sapiens, UniProt P32238); experiment: Displacement of [3H]L-364718 from human recombinant CCK1 receptor expressed in PC3 cells; assay type: cell-based, PC-3
T2 sequence (P32238 whole entry): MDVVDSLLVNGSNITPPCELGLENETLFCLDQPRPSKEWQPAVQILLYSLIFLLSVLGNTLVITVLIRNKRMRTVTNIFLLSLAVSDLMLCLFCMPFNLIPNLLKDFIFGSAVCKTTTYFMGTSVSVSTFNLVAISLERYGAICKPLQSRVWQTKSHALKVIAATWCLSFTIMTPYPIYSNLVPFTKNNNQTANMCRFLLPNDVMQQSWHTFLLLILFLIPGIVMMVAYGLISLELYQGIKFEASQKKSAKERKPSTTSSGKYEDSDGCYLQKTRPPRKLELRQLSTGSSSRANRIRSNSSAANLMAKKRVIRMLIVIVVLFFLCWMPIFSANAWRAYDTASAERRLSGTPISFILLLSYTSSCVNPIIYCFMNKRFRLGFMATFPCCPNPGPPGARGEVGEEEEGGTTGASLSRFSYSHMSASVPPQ

[3] = biological target: T3, Gastrin/cholecystokinin type B receptor (Rattus norvegicus, UniProt P30553); experiment: Antagonist activity at CCK2 receptor in perfused rat stomach assessed as inhibition of pentagastrin-stimulated gastric acid secretion; assay type: functional, tissue-based; conditions: read-out: pA2 (converted)
T3 sequence (P30553 whole entry): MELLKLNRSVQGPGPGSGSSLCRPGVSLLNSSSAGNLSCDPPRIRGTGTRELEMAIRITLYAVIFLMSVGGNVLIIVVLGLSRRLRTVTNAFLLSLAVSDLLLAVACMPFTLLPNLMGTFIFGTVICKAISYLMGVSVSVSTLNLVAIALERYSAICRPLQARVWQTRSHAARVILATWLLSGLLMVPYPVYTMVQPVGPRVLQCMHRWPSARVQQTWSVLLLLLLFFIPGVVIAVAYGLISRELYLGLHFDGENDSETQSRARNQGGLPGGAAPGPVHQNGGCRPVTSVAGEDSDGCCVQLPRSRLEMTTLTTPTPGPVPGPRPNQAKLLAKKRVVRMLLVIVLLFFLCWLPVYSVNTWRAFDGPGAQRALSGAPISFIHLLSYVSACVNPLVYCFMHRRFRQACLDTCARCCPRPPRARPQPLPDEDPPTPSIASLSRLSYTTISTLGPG

[4] = biological target: T4, Gastrin/cholecystokinin type B receptor (Canis lupus familiaris, UniProt P30552); experiment: Displacement of [125I]BH-[…] from CCK2 receptor in canine gastric mucosa; assay type: tissue-based
T4 sequence (P30552 whole entry): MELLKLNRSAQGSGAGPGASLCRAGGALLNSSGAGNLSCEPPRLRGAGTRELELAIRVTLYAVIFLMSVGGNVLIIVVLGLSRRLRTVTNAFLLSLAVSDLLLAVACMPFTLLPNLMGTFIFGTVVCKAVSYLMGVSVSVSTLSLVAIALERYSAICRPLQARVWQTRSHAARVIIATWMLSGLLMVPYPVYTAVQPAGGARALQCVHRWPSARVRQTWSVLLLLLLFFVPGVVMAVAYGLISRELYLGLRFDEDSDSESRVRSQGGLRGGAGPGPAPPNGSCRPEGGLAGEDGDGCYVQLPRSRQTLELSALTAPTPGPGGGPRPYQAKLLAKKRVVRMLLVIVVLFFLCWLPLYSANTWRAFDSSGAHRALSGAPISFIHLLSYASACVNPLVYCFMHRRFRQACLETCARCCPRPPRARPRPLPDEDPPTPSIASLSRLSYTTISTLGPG

[5] = biological target: T1, Gastrin/cholecystokinin type B receptor; experiment: Displacement of [125I]BH-CCK-8S from human recombinant CCK2 receptor expressed in NIH3T3 cells
[6] = biological target: T5, Gastrin/cholecystokinin type B receptor (Canis lupus familiaris) (UniProt P30552); experiment: Inhibition of pentagastrin-stimulated gastric acid secretion in iv dosed conscious gastric fistula dog; assay type: functional, organism-based; conditions: Stomach
T5 sequence (whole entry): T4 sequence (P30552 whole entry)

[7] = biological target: T5, Gastrin/cholecystokinin type B receptor (Canis lupus familiaris); experiment: Inhibition of pentagastrin-stimulated gastric acid secretion in intragastrically dosed conscious gastric fistula dog; assay type: functional, organism-based; conditions: Stomach
[8] = biological target: T2, Cholecystokinin receptor type A; experiment: Displacement of [3H]L-364718 from human recombinant CCK1 receptor expressed in CHOK1 cells; assay type: cell-based, CHO-K1
[9] = Bioavailability in po dosed dog; assay type: ADME, organism-based, Canis lupus familiaris; conditions: in vivo
[10] = Cmax in po dosed dog; assay type: ADME, organism-based, Canis lupus familiaris; parameters: route oral; conditions: in vivo
[11] = Plasma clearance in dog at 2.5 mg/kg, iv; assay type: ADME, organism-based, Canis lupus familiaris; parameters: dose 2.5 mg/kg, route intravenous
[12] = Half life beta in po dosed dog; assay type: ADME, organism-based, Canis lupus familiaris; conditions: in vivo, read-out: beta t1/2 (converted)
[13] = Volume of distribution at steady state in dog at 2.5 mg/kg, iv; assay type: ADME, organism-based, Canis lupus familiaris; parameters: dose 2.5 mg/kg, route intravenous; conditions: in vivo, read-out: Vdss
[14] = biological target: T5, Gastrin/cholecystokinin type B receptor (Canis lupus familiaris); experiment: Inhibition of pentagastrin-stimulated gastric acid secretion in intraduodenal bolus dosed conscious dual gastric fistula dog; assay type: functional, organism-based; conditions: Stomach

Ki [1]	Ki [2]	Kb [3]	Ki [4]	Ki [5]	Ki [8]	Structure (SMILES)	further results
89.1 nM	7080 nM					CC(C)CC1=NN(CC(=O)Nc2cccc(C(=O)O)c2)C(=O)N(CC(=O)C(C)(C)C)c2ccccc21	
	> 10000 nM	9.77 nM	5.25 nM	2.14 nM		CC(C)(C)C(=O)CN1C(=O)N(CC(=O)Nc2cccc(CC(=O)O)c2)N=C(C2CCCCC2)c2ccccc21	Activity [6]: Dose-dependent effect
		1.82 nM	4.47 nM	0.107 nM	468 nM	O=C(CN1N=C(C2CCCCC2)c2ccccc2N(CC(=O)C2CCCC2)C1=O)Nc1cccc(-c2nc(=O)o[nH]2)c1	bioavailability [9]: 41%; Cmax [10]: 15 µM; clearance [11]: 0.2 L/h/kg; half-life [12]: 4.1 h; Vd [13]: 0.13 L/kg

Second part, the compound before the results:

Structure (SMILES)	Ki [1]	Ki [2]	Kb [3]	Ki [4]	Ki [5]	Ki [8]	further results
CC(C)(C)C(=O)CN1C(=O)N(CC(=O)Nc2cccc(-c3nc(=O)o[nH]3)c2)N=C(C2CCCCC2)c2ccccc21				4.47 nM	0.2 nM	589 nM	Activity [7]: Dose-dependent effect
CC1(C(=O)CN2C(=O)N(CC(=O)Nc3cccc(C(=O)O)c3)N=C(C3CCCCC3)c3ccccc32)CCCC1	1.2 nM					3980 nM	
O=C(CN1N=C(C2CCCCC2)c2ccccc2N(CC(=O)C2CCCC2)C1=O)Nc1cccc(-c2noc(=O)[nH]2)c1							Activity [14]: Dose-dependent effect; ID50 [7]: 0.016 mg/kg; ID50 [6]: < 0.03 mg/kg
